Source: ChEMBL document CHEMBL1697731, “Cheminformatics analysis of assertions mined from literature that describe drug-induced liver injury in different species” (Chem Res Toxicol, 2010)

Key:
[1] = tested on: Hepatotoxicity; test: Literature-mined compound from Fourches et al multi-species drug-induced liver injury (DILI) dataset, effect in rodents; settings: rodentia
[2] = tested on: Hepatotoxicity; test: Literature-mined compound from Fourches et al multi-species drug-induced liver injury (DILI) dataset, effect in humans; settings: human
[3] = tested on: Hepatotoxicity; test: Literature-mined compound from Fourches et al multi-species drug-induced liver injury (DILI) dataset, effect in non-rodents

| SMILES | Hepatotoxicity [1] | Hepatotoxicity [2] | Hepatotoxicity [3] | Hepatotoxicity ([1]; Liver) | Hepatotoxicity ([2]; Liver) | Hepatotoxicity ([3]; Liver) |
| --- | --- | --- | --- | --- | --- | --- |
| O=C1Nc2ccc(Cl)cc2[C@@](C#CC2CC2)(C(F)(F)F)O1 [EFAVIRENZ] | drug-induced liver injury reported | drug-induced liver injury reported | no drug-induced liver injury reported |  |  |  |
| O=C1NCCN1c1ncc([N+](=O)[O-])s1 [NIRIDAZOLE] | drug-induced liver injury reported | no drug-induced liver injury reported | no drug-induced liver injury reported |  |  |  |
| CC#CCC(C)[C@H](O)/C=C/[C@@H]1[C@H]2c3cccc(CCCC(=O)O)c3O[C@H]2C[C@H]1O (stereo partly drawn) [BERAPROST] | drug-induced liver injury reported | no drug-induced liver injury reported | no drug-induced liver injury reported |  |  |  |
| C[C@H]1O[C@@H](O[C@H]2[C@@H](O)C[C@H](O[C@H]3[C@@H](O)C[C@H](O[C@H]4CC[C@@]5(C)[C@H](CC[C@@H]6[C@@H]5C[C@@H](O)[C@]5(C)[C@@H](C7=CC(=O)OC7)CC[C@]65O)C4)O[C@@H]3C)O[C@@H]2C)C[C@H](O)[C@@H]1O [DIGOXIN] | drug-induced liver injury reported | no drug-induced liver injury reported | drug-induced liver injury reported |  |  |  |
| CCCCCCCCc1ccc(CCC(N)(CO)CO)cc1 [FINGOLIMOD] | drug-induced liver injury reported | drug-induced liver injury reported | no drug-induced liver injury reported |  |  |  |
| C=C(CC)C(=O)c1ccc(OCC(=O)O)c(Cl)c1Cl [ETHACRYNIC ACID] | drug-induced liver injury reported | no drug-induced liver injury reported | drug-induced liver injury reported |  |  |  |
| CC1(C)[C@@H](OC(=O)CCC(=O)O)CC[C@]2(C)[C@H]3C(=O)C=C4[C@@H]5C[C@@](C)(C(=O)O)CC[C@]5(C)CC[C@@]4(C)[C@]3(C)CC[C@@H]12 [CARBENOXOLONE] | drug-induced liver injury reported | no drug-induced liver injury reported | no drug-induced liver injury reported |  |  |  |
| C=CCN1CC[C@]23c4c5ccc(O)c4O[C@H]2[C@@H](O)C=C[C@H]3[C@H]1C5 [NALORPHINE] | drug-induced liver injury reported | no drug-induced liver injury reported | no drug-induced liver injury reported |  |  |  |
| OC[C@H]1O[C@@H](n2cnc3c(O)ncnc32)[C@H](O)[C@@H]1O [INOSINE] | drug-induced liver injury reported | no drug-induced liver injury reported | no drug-induced liver injury reported |  |  |  |
| CCOC(=O)[C@H](CCc1ccccc1)N[C@@H](C)C(=O)N1[C@H](C(=O)O)C[C@H]2CCCC[C@@H]21 [TRANDOLAPRIL] | no drug-induced liver injury reported | drug-induced liver injury reported | no drug-induced liver injury reported |  |  |  |
| C=O [FORMALDEHYDE] |  |  |  | drug-induced liver injury reported | drug-induced liver injury reported | no drug-induced liver injury reported |
| O=c1[nH]cnc2c1ncn2[C@H]1CC[C@@H](CO)O1 [DIDANOSINE] | drug-induced liver injury reported | drug-induced liver injury reported | no drug-induced liver injury reported |  |  |  |
| CC(=O)Oc1ccccc1C(=O)O [ASPIRIN] | drug-induced liver injury reported | drug-induced liver injury reported | drug-induced liver injury reported |  |  |  |
| CCC1(CCC(C)C)C(=O)NC(=O)NC1=O [AMOBARBITAL] | drug-induced liver injury reported | no drug-induced liver injury reported | no drug-induced liver injury reported |  |  |  |
| Cc1cc2nc3c(=O)[nH]c(=O)nc-3n(C[C@H](O)[C@H](O)[C@H](O)CO)c2cc1C [RIBOFLAVIN] | no drug-induced liver injury reported | drug-induced liver injury reported | no drug-induced liver injury reported |  |  |  |
| COc1cc2c(cc1O)CCN[C@]21CS[C@@H]2c3c(OC(C)=O)c(C)c4c(c3[C@H](COC1=O)N1[C@@H]2[C@H]2c3c(cc(C)c(OC)c3O)C[C@@H]([C@@H]1O)N2C)OCO4 [TRABECTEDIN] | drug-induced liver injury reported | drug-induced liver injury reported | no drug-induced liver injury reported |  |  |  |
| N=C(N)NCCC[C@H](N)C(=O)O [ARGININE] | drug-induced liver injury reported | drug-induced liver injury reported | drug-induced liver injury reported |  |  |  |
| CCC1(c2ccccc2)C(=O)NCNC1=O [PRIMIDONE] | no drug-induced liver injury reported | drug-induced liver injury reported | drug-induced liver injury reported |  |  |  |

| SMILES | Hepatotoxicity [1] | Hepatotoxicity [2] | Hepatotoxicity [3] | Hepatotoxicity ([1]; Liver) | Hepatotoxicity ([2]; Liver) | Hepatotoxicity ([3]; Liver) |
| --- | --- | --- | --- | --- | --- | --- |
| CCCCC1=NC2(CCCC2)C(=O)N1Cc1ccc(-c2ccccc2-c2nnn[nH]2)cc1 [IRBESARTAN] | drug-induced liver injury reported | drug-induced liver injury reported | no drug-induced liver injury reported |  |  |  |
| CCC1(CC)C(=O)NC(=O)NC1=O [BARBITAL] | drug-induced liver injury reported | no drug-induced liver injury reported | no drug-induced liver injury reported |  |  |  |
| CCN(CC)C(=O)c1cccc(C)c1 [DIETHYLTOLUAMIDE] | drug-induced liver injury reported | no drug-induced liver injury reported | no drug-induced liver injury reported |  |  |  |
| CCOC(=O)c1cncn1[C@H](C)c1ccccc1 [ETOMIDATE] | drug-induced liver injury reported | drug-induced liver injury reported | no drug-induced liver injury reported |  |  |  |
| NC[C@@H]1O[C@H](O[C@H]2[C@@H](O)[C@H](O[C@@H]3[C@@H](O)[C@H](N)C[C@H](N)[C@H]3O[C@H]3O[C@H](CN)[C@@H](O)[C@H](O)[C@H]3N)O[C@@H]2CO)[C@H](N)[C@@H](O)[C@@H]1O [FRAMYCETIN] |  |  |  | drug-induced liver injury reported | no drug-induced liver injury reported | no drug-induced liver injury reported |
| Cc1cn([C@H]2C[C@H](N=[N+]=[N-])[C@@H](CO)O2)c(=O)[nH]c1=O [ZIDOVUDINE] | drug-induced liver injury reported | drug-induced liver injury reported | no drug-induced liver injury reported |  |  |  |
| NC(=O)NO [HYDROXYUREA] | drug-induced liver injury reported | drug-induced liver injury reported | no drug-induced liver injury reported |  |  |  |
| CN(C/C=C/C#CC(C)(C)C)Cc1cccc2ccccc12 [TERBINAFINE] | drug-induced liver injury reported | drug-induced liver injury reported | no drug-induced liver injury reported |  |  |  |
| CC1=C(CC(=O)O)c2cc(F)ccc2/C1=C\c1ccc([S+](C)[O-])cc1 (stereo not drawn) | drug-induced liver injury reported | drug-induced liver injury reported | no drug-induced liver injury reported |  |  |  |
| C[C@H](N[C@@H](CCc1ccccc1)C(=O)O)C(=O)N1CCC[C@H]1C(=O)O [ENALAPRILAT ANHYDROUS] | no drug-induced liver injury reported | drug-induced liver injury reported | no drug-induced liver injury reported |  |  |  |
| C/C(=C\c1csc(C)n1)[C@@H]1C[C@@H]2O[C@]2(C)CCC[C@H](C)[C@H](O)[C@@H](C)C(=O)C(C)(C)[C@@H](O)CC(=O)N1 [IXABEPILONE] | no drug-induced liver injury reported | drug-induced liver injury reported | no drug-induced liver injury reported |  |  |  |
| Nc1ncnc2c1ncn2[C@@H]1O[C@H](COP(=O)(O)OP(=O)(O)OP(=O)(O)O)[C@@H](O)[C@H]1O [ADENOSINE TRIPHOSPHATE] | drug-induced liver injury reported | no drug-induced liver injury reported | no drug-induced liver injury reported |  |  |  |
| C[C@@H]1O[C@@H]1P(=O)(O)O [FOSFOMYCIN] | no drug-induced liver injury reported | drug-induced liver injury reported | no drug-induced liver injury reported |  |  |  |
| CC(C)c1c(C(=O)Nc2ccccc2)c(-c2ccccc2)c(-c2ccc(F)cc2)n1CC[C@@H](O)C[C@@H](O)CC(=O)O [ATORVASTATIN] |  |  |  | drug-induced liver injury reported | drug-induced liver injury reported | drug-induced liver injury reported |
| Cc1nnc2n1-c1sc(Br)cc1C(c1ccccc1Cl)=NC2 [BROTIZOLAM] | drug-induced liver injury reported | no drug-induced liver injury reported | no drug-induced liver injury reported |  |  |  |
| CSCC[C@H](N)C(=O)O [METHIONINE] |  |  |  | drug-induced liver injury reported | drug-induced liver injury reported | drug-induced liver injury reported |
| C=C1/C(=C\C=C2/CCC[C@]3(C)[C@@H]([C@H](C)/C=C/C=C/C(O)(CC)CC)CC[C@@H]23)C[C@@H](O)C[C@@H]1O [SEOCALCITOL] | no drug-induced liver injury reported | drug-induced liver injury reported | no drug-induced liver injury reported |  |  |  |
| Cn1cc([S+](C)[O-])c(=O)c2ccc(F)cc21 (stereo not drawn) [FLOSEQUINAN] | no drug-induced liver injury reported | drug-induced liver injury reported | no drug-induced liver injury reported |  |  |  |
